The source of these data is patent US20230145794A1, “SOLVENT COMPOSITIONS PROMOTING PLANT GROWTH” (WinField Solutions, LLC, priority 2021, published 2023).

Each structure is given as a SMILES string.

Assay in one data set: not given
Particulars: known solvent, from Safety Data Sheet; cited from earlier work.
With `CCOC(C)=O` [compound 1, Ethyl acetate], the Density is listed as 1.049 g/mL. For `COCC(C)O` (stereo not shown) [compound 2, 1-methoxy-2-propanol], the Density is 0.942 g/mL. For the compound `CCCCOCCO` [compound 3, Ethylene glycol butyl ether, 2-butoxyl ethanol], the “Flash Point” value was 60 C. °.

Turning to `CCCCOCCOCCO` [compound 4, Diethylene glycol butyl ether], the Density is reported as 0.967 g/mL and the “Flash Point” value is listed as 78 C. °. In the case of `CCCCC(CC)COC(=O)C(C)O` (stereo not shown) [compound 5, Lactic acid, 2-ethylhexyl ester], the Density is recorded as 1.209 g/mL and the “Flash Point” value was 110 C. °.

Turning to `OCC1CCCO1` (stereo not shown) [compound 6, Tetrahydrofurfyl Alcohol], the “Flash Point” value is 84 C. °.

Consider `CCCCC(CC)CO` (stereo not shown) [compound 7, Ethyl hexanol], for which the “Boiling Point” value is 185 C. °, the Density is reported as 0.833 g/mL and the “Flash Point” value is listed as 73 C. °. Turning to `CCCCOC(=O)C(C)O` (stereo not shown) [compound 8, Butyl lactate], the “Flash Point” value is 76 C. °. `CC(O)CO` (stereo not shown) [compound 9, Propylene Glycol]: the Density is recorded as 1.036 g/mL and the “Flash Point” value was 101 C. °. As to `CC(=O)OCCCCCCCC=O` [compound 11, Oxo-octyl acetate], the “Boiling Point” value is given as 211 C. °, the Density was 0.867 g/mL and the “Flash Point” value was 86 C. °. Regarding `CC(=O)OCC(COC(C)=O)OC(C)=O` [compound 12, Glyceryl triacetate], the “Flash Point” value was 138 C. °. For `CCCCCOC(C)=O` [compound 14, Amyl Acetate], the Density is given as 0.876 g/mL and the “Flash Point” value was 32 C. °.

Another data set in a line: Physical properties of solvent/PGR compositions (flash point tester, pH, density). Type of data set: physicochemical. The settings on record: flashpoint tester. Here is the method:
The physical properties of the various solvents and solvent combinations in combination with the assortment of PGR compositions were determined using standard laboratory equipment. Flash point was determined using a flashpoint tester.
The solvents initially examined included 2-butoxy ethanol (“BE”), BHT, propylene glycol (“PG”), methoxy propanol, water, polyethelene glycol (“PEG”), and Tetrahydrofurfyl alcohol (“THFA”), alone and/or in various combinations, with and without PGR compositions including Kinetin, indole butyric acid (“IBA”) and gibberellin A4 (“GA4”).
On to `COCC(C)O` (stereo not shown) [Comp 40, methoxy propanol], for which the “Flash Point” value amounted to 89 C°. For `OCC1CCCO1` (stereo not shown) [Comp 41, THFA], the “Flash Point” value was 183 C°.
